Data from US12528774B2, “Thiosemicarbazone compounds and uses thereof” (The Regents of the University of California, priority 2019, dated 2026).
Like-named read-outs stand apart in the source and are kept apart here.

Test system: MIAPACA2 cells
Assay: Proliferation assay (CellTiter-Glo, 72 h) in MIAPACA2 cells
Assay type: cell-based, human
Conditions: for IC90: MIAPACA2, 72 h; for increase in potency under copper supplementation versus non-copper-supplemented IC90: 20 μM CuCl2; for potency relative to non-fluorinated analog: IC90 without copper, analog of same 4′ amine series (HCT1, HCT6 or HCT11)
Method: IC90 values against MIAPACA2 cells was first determined in normal cell culture conditions (DMEM media and 10% FBS). Compounds were separated into three series (4′ primary amines, 4′ secondary amines, 4′ tertiary amines) to reflect the relative degrees of 4′ amine methylation. […] (Refs 41, 42).
HCT compounds are known to be copper chelators. (Ref. 32). To test whether the compounds described herein were similarly potentiated, the IC90 (+Cu IC90) values were determined against MIAPACA2 cells in media supplemented with physiologically relevant levels of copper (DMEM media+10% FBS+20 μM CuCl2). MIAPACA2 cells were treated with the indicated HCT±20 μM Cu(II) for 72 hours, then cell viability was measured with CellTiter-Glo to determine IC90 values.
(§1) Proliferation assay: Cells were plated in 384-well plates (500 cells/well for adherent cell lines in 30 μl volume). Drugs were serially diluted to the desired concentrations and an equivalent volume of DMSO was added to vehicle control. Following 72 h incubation, ATP content was measured using CellTiter-Glo reagent according to manufacturer's instructions (Promega, CellTiter-Glo Luminescent Cell Viability Assay), and analyzed by SpectraMax luminometer (Molecular Devices). IC50 and IC90 values, concentrations required to inhibit proliferation by 50% and 90% respectively compared to DMSO treated cells, were calculated using Prism 6.0 h (Graphpad Software).
as §1, with “assay.” for “assay:”, “Software). The 430-member protein kinase inhibitor library used for the chemical genomics screen was purchased from Selleckchem, Catalog No. L1200.” for “Software).”

[1] = Homo sapiens, MIA PaCa-2, 72 h, DMEM + 10% FBS, no copper supplementation, read-out: IC90
[2] = DMEM + 10% FBS + 20 μM CuCl2, read-out: +Cu(II) IC90

Structure (SMILES) | IC90 [1] | IC90 [2] | increase in potency under copper supplementation versus non-copper-supplemented IC90 | increase in potency under copper supplementation versus non-copper-supplemented IC90 (listed as 11) | increase in potency under copper supplementation versus non-copper-supplemented IC90 (listed as 6) | potency relative to non-fluorinated analog | effect on proliferation (20 μM Cu(II) alone)
CN(C)C(=S)N/N=C/c1nccc2ccccc12 (mixture of isomers) [HCT11, (E)-2-(Isoquinolin-1-ylmethylene)-N,N-dimethylhydrazine-1-carbothioamide and (Z)-2-(Isoquinolin-1-ylmethylene)-N,N-dimethylhydrazine-1-carbothioamide] | 29.6 µM | 0.0737 µM | 400 fold | significantly increased | – | – | –
CNc1cccc2c(/C=N/NC(=S)N(C)C)ncc(F)c12 (mixture of isomers) [HCT15, (E)-2-((4-Fluoro-5-(methylamino)isoquinolin-1-yl)methylene)-N,N-dimethylhydrazine-1-carbothioamide and (Z)-2-((4-Fluoro-5-(methylamino)isoquinolin-1-yl)methylene)-N,N-dimethylhydrazine-1-carbothioamide] | 0.327 µM | 0.0423 µM | – | – | – | – | –
[Cl][Cu][Cl] [Cu(II), CuCl2] | – | – | – | – | – | – | did not affect proliferation at all
NC(=S)N/N=C/c1nccc2ccccc12 [HCT1, (E)-2-(isoquinolin-1-ylmethylene)hydrazine-1-carbothioamide, reference compound] | 18.1 µM | 2.21 µM | 10 fold | – | – | – | –
NC(=S)N/N=C/c1nccc2c(N)cccc12 [HCT5, (E)-2-((5-Aminoisoquinolin-1-yl)methylene)hydrazine-1-carbothioamide, reference compound] | 40.5 µM | 71.1 µM | attenuated | – | – | – | –
CNC(=S)N/N=C/c1nccc2ccccc12 [HCT6, (E)-2-(isoquinolin-1-ylmethylene)-N-methylhydrazine-1-carbothioamide, reference compound] | 18.7 µM | 0.331 µM | 60 fold | – | significantly increased | – | –
CNC(=S)N/N=C/c1nccc2cc(F)ccc12 [HCT8, (E)-2-((6-Fluoroisoquinolin-1-yl)methylene)-N-methylhydrazine-1-carbothioamide] | 4.08 µM | 0.233 µM | – | – | – | significantly more potent | –

More lines, main results first:

IC90 [1] | IC90 [2] | increase in potency under copper supplementation versus non-copper-supplemented IC90 | increase in potency under copper supplementation versus non-copper-supplemented IC90 (listed as 11) | increase in potency under copper supplementation versus non-copper-supplemented IC90 (listed as 6) | Structure (SMILES) | potency relative to non-fluorinated analog | effect on proliferation (20 μM Cu(II) alone)
11.2 µM | 7.87 µM | – | – | – | CNC(=S)N/N=C/c1nccc2c(N)cccc12 (mixture of isomers) [HCT10, 2-((5-Aminoisoquinolin-1-yl)methylene)-N-methylhydrazine-1-carbothioamide and (Z)-2-((5-Aminoisoquinolin-1-yl)methylene)-N-methylhydrazine-1-carbothioamide] | – | –
0.274 µM | 0.0266 µM | – | – | – | CN(C)C(=S)N/N=C/c1ncc(F)c2ccccc12 (mixture of isomers) [HCT12, (E)-2-((4-Fluoroisoquinolin-1-yl)methylene)-N,N-dimethylhydrazine-1-carbothioamide and (Z)-2-((4-Fluoroisoquinolin-1-yl)methylene)-N,N-dimethylhydrazine-1-carbothioamide] | roughly 110 fold | –
0.272 µM | 0.0384 µM | – | – | – | CNc1c(F)ccc2c(/C=N/NC(=S)N(C)C)nccc12 (mixture of isomers) [HCT14, (E)-2-((6-Fluoro-5-(methylamino)isoquinolin-1-yl)methylene)-N,N-dimethylhydrazine-1-carbothioamide and (Z)-2-((6-Fluoro-5-(methylamino)isoquinolin-1-yl)methylene)-N,N-dimethylhydrazine-1-carbothioamide] | – | –
24.6 µM | 2.06 µM | – | – | – | NC(=S)N/N=C/c1ncc(F)c2ccccc12 [HCT2, (E)-2-((4-Fluoroisoquinolin-1-yl)methylene)hydrazine-1-carbothioamide] | did not show an increase in potency | –
5.44 µM | 2.04 µM | – | – | – | NC(=S)N/N=C/c1nccc2cc(F)ccc12 [HCT3, (E)-2-((6-Fluoroisoquinolin-1-yl)methylene)hydrazine-1-carbothioamide] | 3 fold | –
11.5 µM | 5.33 µM | – | – | – | CNc1cccc2c(/C=N/NC(N)=S)nccc12 [HCT4, (E)-2-((5-(Methylamino)isoquinolin-1-yl)methylene)hydrazine-1-carbothioamide, reference compound] | – | –
2.08 µM | 0.114 µM | – | – | – | CNC(=S)N/N=C/c1ncc(F)c2ccccc12 [HCT7, (E)-2-((4-Fluoroisoquinolin-1-yl)methylene)-N-methylhydrazine-1-carbothioamide] | significantly more potent | –
4.24 µM | 0.607 µM | significantly increased | – | – | CNC(=S)N/N=C/c1nccc2c(NC)cccc12 [HCT9, E)-N-Methyl-2-((5-(methylamino)isoquinolin-1-yl)methylene)hydrazine-1-carbothioamide and (Z)—N-Methyl-2-((5-(methylamino)isoquinolin-1-yl)methylene)hydrazine-1-carbothioamide] | – | –
